Laboratory results reported in PubChem BioAssay AID2060888 (Molecular Pharmacology Branch, DTP, NCI, 2025).

Tested on: 695427-040-R-J1-PDC complex spheroid viability
Experiment: Anticancer human tumor 695427-040-R-J1-PDC patient-derived colon adenocarcinoma cell line growth inhibition [RAS]
Details: for IC50: curve of first compound; for viability, T/C: stronger effect = lower value
Source text: RAS pathway inhibitors in Combinations in Complex Spheroids
A high-throughput screen of multi-cell type tumor spheroids was designed to identify active combinations of RAS pathway inhibitors and targeted small molecules. Complex spheroids include a stromal component modeled by human endothelial cells (HUVEC) and fibroblasts modeled by human mesenchymal stem cells (MSCs). The concentration ranges selected for each drug and investigational agent were based upon clinically achievable concentrations if the clinical Cmax of the agent was known.
Compounds. The drugs and investigational agents: abemaciclib (NSC768073), cobimetinib (NSC768068), divarasib (GDC6063, NSC841802), docetaxel (NSC628503), GDC-1971 (RLY-1971, NSC841576), gemcitabine (NSC613327), inavolisib (NSC800729), ipatasertib (NSC767898), KB-0742 (NSC834161), MRTX-1133 (NSC836407), osimertinib (NSC779217), RMC-4630 (NSC839698), RMC-6236 (NSC851965), RMC-6291 (NSC852671), Ro-3306 (NSC812927), sapanisertib (NSC764658), SN-38 (NSC673596), staurosporine (NSC755774), SY5609 (NSC837396), and tovorafenib (DAY101, NSC766906), were obtained from the National Cancer Institute (NCI) Developmental Therapeutics Program Chemical Repository. The FDA-approved anticancer drug set is available from the NCI Developmental Therapeutics Program. […] The stock solutions were prepared in dimethyl sulfoxide (DMSO, Sigma-Aldrich, St. Louis, MO, cat. D2650) at 800-fold the tested concentration and stored at -70 degrees C prior to their use. All drugs and investigational agents were tested over a range starting from a high concentration at or near the clinical Cmax and decreasing in half-log increments. If the clinical Cmax for an agent had not been determined, the highest concentration tested was 10 microM.
Cell Culture. All cells were maintained in an incubator at 37 degrees C and 5% CO2 with 95% humidity. The PDC lines were cultured according to standard operating procedures established by the NCI PDMR. All PDCs were thawed and cultured in Matrigel-coated flasks prepared with a working solution of 1X Ham's F-12 nutrient mix, without supplementation (Invitrogen, Waltham, MA, cat. 11765054), 100 U/mL penicillin-streptomycin (Invitrogen, cat. 15140122), and 2.5% Matrigel (Corning Inc., Corning, NY, cat. 354248) for the first three passages. The 362531-283-R-J2-PDC and 782815-120-R-J1-PDC lines were cultured in 6C/Colon 1B media, which includes advanced DMEM/F-12 (Thermo Fisher Scientific, cat. 12634028), 10 mM HEPES (Thermo Fisher Scientific, cat. 15630080), 1X GlutaMAX supplement (Thermo Fisher Scientific, cat. 35050061), 0.1 mg/mL primocin (InvivoGen, San Diego, CA, cat. ant-pm-2), 10% defined fetal bovine serum, heat inactivated (HyClone Laboratories Inc., Logan, UT, cat. SH30070.03HI), 50% L-WRN conditioned media (ATCC, cat. CRL-3276), 1.25 mM N-Acetyl-L-cysteine (Sigma-Aldrich, cat. A9165), 10 mM nicotinamide (Sigma-Aldrich, cat. N0636), 1X B-27 supplement (Thermo Fisher Scientific, cat. 17504044), 1X N-2 supplement (Thermo Fisher Scientific, cat. 17502048), 50 ng/mL human EGF (Thermo Fisher Scientific, cat. PHG0311), and 10 microM Y-27632 dihydrochloride (Tocris Bioscience, cat. 1254). The K12877-001-R-J1-PDC line was cultured in 6I media, which includes all 6C/Colon 1B media plus 10 ng/mL human FGF-10 (PeproTech, cat. 100-26), 1 ng/mL human FGF-2 (PeproTech, cat. 100-18B), 1 µM prostaglandin E2 (Tocris Bioscience, cat. 2296), […] hydrocortisone (Sigma-Aldrich, cat. H4001), and […] bovine insulin (Sigma-Aldrich, cat. I6634). The K86415-001-R-J1-PDC line was cultured in 6D media, which includes all 6C/Colon 1B media components minus the L-WRN conditioned media. The 485176-168-R4-J1-PDC was cultured in PANC media, which includes all 6C/Colon 1B media plus 100 ng/mL human FGF-10 (PeproTech, cat. 100-26), 500 nM SB-431542 (Selleckchem, cat. S1067), and 10 nM gastrin (Tocris Bioscience, cat. 3006). […]

[1] = second compound 0.0316 µM, first compound 0.0316 µM
[2] = second compound 0.0316 µM, first compound 0.1 µM
[3] = second compound 0.0316 µM, first compound 0.316 µM
[4] = second compound 0.0316 µM, first compound 1 µM
[5] = second compound 0.0316 µM, first compound 3.16 µM
[6] = second compound 0.0316 µM, first compound 10 µM
[7] = second compound 0.1 µM, first compound 0.0316 µM
[8] = second compound 0.1 µM, first compound 0.1 µM
[9] = second compound 0.1 µM, first compound 0.316 µM
[10] = second compound 0.1 µM, first compound 1 µM
[11] = second compound 0.1 µM, first compound 3.16 µM
[12] = second compound 0.1 µM, first compound 10 µM
[13] = second compound 0.316 µM, first compound 0.0316 µM
[14] = second compound 0.316 µM, first compound 0.1 µM
[15] = second compound 0.316 µM, first compound 0.316 µM
[16] = second compound 0.316 µM, first compound 1 µM
[17] = second compound 0.316 µM, first compound 3.16 µM
[18] = second compound 0.316 µM, first compound 10 µM
[19] = second compound 1 µM, first compound 0.0316 µM
[20] = second compound 1 µM, first compound 0.1 µM
[21] = second compound 1 µM, first compound 0.316 µM
[22] = second compound 1 µM, first compound 1 µM
[23] = second compound 1 µM, first compound 3.16 µM
[24] = second compound 1 µM, first compound 10 µM
[25] = second compound 3.16 µM, first compound 0.0316 µM
[26] = second compound 3.16 µM, first compound 0.1 µM
[27] = second compound 3.16 µM, first compound 0.316 µM
[28] = second compound 3.16 µM, first compound 1 µM
[29] = second compound 3.16 µM, first compound 3.16 µM
[30] = second compound 3.16 µM, first compound 10 µM
[31] = second compound 10 µM, first compound 0.0316 µM
[32] = second compound 10 µM, first compound 0.1 µM
[33] = second compound 10 µM, first compound 0.316 µM
[34] = second compound 10 µM, first compound 1 µM
[35] = second compound 10 µM, first compound 3.16 µM
[36] = second compound 10 µM, first compound 10 µM
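Note: viability read after seven days of drug exposure.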
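Throughout, for viability, T/C: 100% = DMSO vehicle control viability.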

SMILES: Cc1nc(N2CCC3(CC2)COC(C)C3N)c(CO)nc1Sc1ccnc(N)c1Cl (stereo unspecified) + C#Cc1c(F)ccc2cc(O)cc(-c3ncc4c(N5CC6CCC(C5)N6)nc(OCC56CCCN5CC(F)C6)nc4c3F)c12
- IC50 (second compound 0.0316 µM): > 10000 nM
- IC50 (second compound 0.1 µM): > 10000 nM
- IC50 (second compound 0.316 µM): 1980 nM
- IC50 (second compound 1 µM): 477 nM
- IC50 (second compound 3.16 µM): 36.3 nM
- IC50 (second compound 10 µM): < 31.6 nM
- viability, T/C [1]: 92.3%
- viability, T/C [2]: 80.5%
- viability, T/C [3]: 70.7%
- viability, T/C [4]: 75%
- viability, T/C [5]: 70.5%
- viability, T/C [6]: 51.1%
- viability, T/C [7]: 89.2%
- viability, T/C [8]: 78.1%
- viability, T/C [9]: 79.2%
- viability, T/C [10]: 60.9%
- viability, T/C [11]: 60.2%
- viability, T/C [12]: 51.9%
- viability, T/C [13]: 78.7%
- viability, T/C [14]: 66.2%
- viability, T/C [15]: 56.7%
- viability, T/C [16]: 57.1%
- viability, T/C [17]: 50.5%
- viability, T/C [18]: 39.2%
- viability, T/C [19]: 65.8%
- viability, T/C [20]: 63.2%
- viability, T/C [21]: 51.2%
- viability, T/C [22]: 42.1%
- viability, T/C [23]: 40.4%
- viability, T/C [24]: 26%
- viability, T/C [25]: 51.3%
- viability, T/C [26]: 44%
- viability, T/C [27]: 38.1%
- viability, T/C [28]: 32.6%
- viability, T/C [29]: 23.5%
- viability, T/C [30]: 16.2%
- viability, T/C [31]: 33.2%
- viability, T/C [32]: 27.7%
- viability, T/C [33]: 27.3%
- viability, T/C [34]: 18.6%
- viability, T/C [35]: 15.8%
- viability, T/C [36]: 10.3%

SMILES: NC1c2ccccc2OC12CCN(c1cnc3c(N4CCCc5ncccc54)n[nH]c3n1)CC2 (stereo unspecified) + C#Cc1c(F)ccc2cc(O)cc(-c3ncc4c(N5CC6CCC(C5)N6)nc(OCC56CCCN5CC(F)C6)nc4c3F)c12
- IC50 (second compound 0.0316 µM): 1180 nM
- IC50 (second compound 0.1 µM): 583 nM
- IC50 (second compound 0.316 µM): 141 nM
- IC50 (second compound 1 µM): 50.8 nM
- IC50 (second compound 3.16 µM): < 31.6 nM
- IC50 (second compound 10 µM): < 31.6 nM
- viability, T/C [1]: 69.6%
- viability, T/C [2]: 65.6%
- viability, T/C [3]: 57.4%
- viability, T/C [4]: 50%
- viability, T/C [5]: 45.2%
- viability, T/C [6]: 33.6%
- viability, T/C [7]: 69%
- viability, T/C [8]: 61.8%
- viability, T/C [9]: 55.9%
- viability, T/C [10]: 45.1%
- viability, T/C [11]: 34.9%
- viability, T/C [12]: 23.5%
- viability, T/C [13]: 66.8%
- viability, T/C [14]: 52.1%
- viability, T/C [15]: 40.8%
- viability, T/C [16]: 31.9%
- viability, T/C [17]: 25.5%
- viability, T/C [18]: 12.8%
- viability, T/C [19]: 55.8%
- viability, T/C [20]: 40.9%
- viability, T/C [21]: 33.6%
- viability, T/C [22]: 25.7%
- viability, T/C [23]: 15.8%
- viability, T/C [24]: 8.19%
- viability, T/C [25]: 39.6%
- viability, T/C [26]: 27.4%
- viability, T/C [27]: 23.4%
- viability, T/C [28]: 15.9%
- viability, T/C [29]: 12.2%
- viability, T/C [30]: 5.36%
- viability, T/C [31]: 23.9%
- viability, T/C [32]: 18.9%
- viability, T/C [33]: 10.8%
- viability, T/C [34]: 7.6%
- viability, T/C [35]: 4.71%
- viability, T/C [36]: 1.43%

SMILES: Nc1ccn(C2OC(CO)C(O)C2(F)F)c(=O)n1 (stereo unspecified) + C#Cc1c(F)ccc2cc(O)cc(-c3ncc4c(N5CC6CCC(C5)N6)nc(OCC56CCCN5CC(F)C6)nc4c3F)c12
- IC50 (second compound 0.0316 µM): > 1000 nM
- IC50 (second compound 0.1 µM): > 1000 nM
- IC50 (second compound 0.316 µM): > 1000 nM
- IC50 (second compound 1 µM): > 1000 nM
- IC50 (second compound 3.16 µM): 75.7 nM
- IC50 (second compound 10 µM): < 3.16 nM
- viability, T/C (second compound 0.0316 µM, first compound 0.00316 µM): 83.8%
- viability, T/C (second compound 0.0316 µM, first compound 0.01 µM): 82.2%
- viability, T/C [1]: 75%
- viability, T/C [2]: 75.7%
- viability, T/C [3]: 76.8%
- viability, T/C [4]: 70.8%
- viability, T/C (second compound 0.1 µM, first compound 0.00316 µM): 87.7%
- viability, T/C (second compound 0.1 µM, first compound 0.01 µM): 75.5%
- viability, T/C [7]: 81.9%
- viability, T/C [8]: 68.8%
- viability, T/C [9]: 78.4%
- viability, T/C [10]: 67.2%
- viability, T/C (second compound 0.316 µM, first compound 0.00316 µM): 85.2%
- viability, T/C (second compound 0.316 µM, first compound 0.01 µM): 79.4%
- viability, T/C [13]: 66.7%
- viability, T/C [14]: 72.3%
- viability, T/C [15]: 67%
- viability, T/C [16]: 60.5%
- viability, T/C (second compound 1 µM, first compound 0.00316 µM): 68%
- viability, T/C (second compound 1 µM, first compound 0.01 µM): 63.4%
- viability, T/C [19]: 69.5%
- viability, T/C [20]: 59.6%
- viability, T/C [21]: 59.2%
- viability, T/C [22]: 55.7%
- viability, T/C (second compound 3.16 µM, first compound 0.00316 µM): 57.9%
- viability, T/C (second compound 3.16 µM, first compound 0.01 µM): 62.4%
- viability, T/C [25]: 48.9%
- viability, T/C [26]: 45.4%
- viability, T/C [27]: 50.8%
- viability, T/C [28]: 44.7%
- viability, T/C (second compound 10 µM, first compound 0.00316 µM): 37.3%
- viability, T/C (second compound 10 µM, first compound 0.01 µM): 34.8%
- viability, T/C [31]: 33.2%
- viability, T/C [32]: 36.4%
- viability, T/C [33]: 33.4%
- viability, T/C [34]: 33%
